# Test results published in patent publication US10639284B2, “Immunomodulator compounds” (CHEMOCENTRYX, INC., priority 2016, dated 2020).
# Molecular target: human PD-L1 / Human PD-1 (Homo sapiens (Human), UniProt Q9NZQ7)
# Test: Enzyme-Linked Immunosorbent Assay (ELISA), PD-1/PD-L1 binding
# Settings: Table 2; plate-coated human PD-L1, biotinylated human PD-1; read-out: ELISA IC50
# Procedure, shortened: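 Human PD-L1 coated at 1 μg/mL overnight at 4° C; samples diluted 1:5 and incubated with human PD-1 and biotin (0.3 μg/mL) for 1 h at 37° C. Bound PD-1 detected with streptavidin-HRP and TMB (20 min, 37° C), acid-stopped, absorbance at 450 nm.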
# Chain of human PD-L1 / Human PD-1 (Q9NZQ7 19-239): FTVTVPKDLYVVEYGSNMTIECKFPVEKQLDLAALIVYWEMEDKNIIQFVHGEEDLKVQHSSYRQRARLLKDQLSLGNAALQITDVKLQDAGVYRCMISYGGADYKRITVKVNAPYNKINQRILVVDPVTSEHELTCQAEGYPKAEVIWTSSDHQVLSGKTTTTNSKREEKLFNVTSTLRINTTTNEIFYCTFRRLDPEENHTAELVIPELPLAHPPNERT
row,IC50,Structure (SMILES)
1,500 to 20000 nM,N#Cc1cncc(COc2cc(O[C@H]3CCc4c(-c5ccc(Cl)c(Cl)c5)cccc43)c(Cl)cc2CN[C@@H](CO)C(=O)O)c1 [Example 2.016]
2,100 to 500 nM,OC1CCN(Cc2cc(Cl)c(O[C@H]3CCc4c(-c5ccccc5F)cccc43)cc2OCc2cnc(Cl)nc2)CC1 [Example 2.111]
3,< 100 nM,N#Cc1cncc(COc2cc(O[C@H]3CCc4c(-c5ccccc5F)cccc43)c(Cl)cc2CN[C@H](CO)C(=O)O)c1 [Example 2.102]
4,< 100 nM,COc1ccc(Cl)c(-c2cccc3c2CC[C@@H]3Oc2cc(OCc3cncc(C#N)c3)c(CN[C@@H](CO)C(=O)O)cc2Cl)c1 [Example 2.065]
5,< 100 nM,N#Cc1cncc(COc2cc(O[C@H]3CCc4c(-c5ccccc5F)cccc43)c(Cl)cc2CN2CC(O)C2)c1 [Example 2.037]
6,< 100 nM,N#Cc1cncc(COc2cc(O[C@H]3CCc4c(-c5ccc6c(c5F)OCCO6)cccc43)c(Cl)cc2CN[C@@H](CO)C(=O)O)c1 [Example 2.057]
7,500 to 20000 nM,COc1ccc(-c2cccc3c2CC[C@@H]3Oc2cc(OCc3cncc(C#N)c3)c(CN[C@@H](CO)C(=O)O)cc2Cl)cc1OC [Example 2.021]
8,< 100 nM,CCC(O)C(NCc1cc(Cl)c(O[C@H]2CCc3c(-c4ccccc4F)cccc32)cc1OCc1cncc(C#N)c1)C(=O)O (stereo partly drawn) [Example 2.125]
9,500 to 20000 nM,COc1cccc(-c2cccc3c2CC(C)C3Oc2cc(OCc3cncc(C#N)c3)c(CN[C@@H](CO)C(=O)O)cc2Cl)c1F (stereo partly drawn) [Example 2.049]
10,< 100 nM,CCOc1cc(O[C@H]2CCc3c(-c4ccccc4F)cccc32)c(Cl)cc1CN[C@@H](CO)C(=O)O [Example 2.036]
11,< 100 nM,CN(C)Cc1cc(Cl)c(O[C@H]2CCc3c(-c4ccccc4F)cccc32)cc1OCc1cncc(C#N)c1 [Example 2.031]
12,500 to 20000 nM,CCOc1cc(O[C@H]2CCc3c(-c4ccccc4F)cccc32)c(Cl)cc1CN1CCC(O)CC1 [Example 2.061]
13,100 to 500 nM,COc1cccc(-c2cccc3c2CC[C@@H]3Oc2cc(OCc3cncc(C#N)c3)c(CN3CCC(O)CC3)cc2Cl)c1Cl [Example 2.071]
14,500 to 20000 nM,N#Cc1cncc(-c2cc(O[C@H]3CCc4c(-c5ccccc5F)cccc43)c(Cl)cc2CN2CCC(O)CC2)c1 [Example 2.112]
15,100 to 500 nM,COc1ncc(COc2cc(O[C@H]3CCc4c(-c5ccccc5F)cccc43)c(Cl)cc2CN2CCC(O)CC2)cn1 [Example 2.131]
16,< 100 nM,C[C@@H](NCc1cc(Cl)c(O[C@H]2CCc3c(-c4ccccc4F)cccc32)cc1OCc1cncc(C#N)c1)C(=O)O [Example 2.141]
17,< 100 nM,N#Cc1cncc(COc2cc(O[C@H]3CCc4c(-c5ccc6c(c5F)OCCO6)cccc43)c(Cl)cc2CN2CC(O)C2)c1 [Example 2.070]

row,IC50,Structure (SMILES)
1,< 100 nM,N#Cc1cncc(COc2cc(O[C@H]3CCc4c(-c5ccccc5F)cccc43)c(Cl)cc2CN[C@@H](CCC(=O)O)C(=O)O)c1 [Example 2.117]
2,100 to 500 nM,COc1cc(O[C@H]2CCc3c(-c4ccccc4)cccc32)c(Cl)cc1CN[C@@H](CO)C(=O)O [Example 2.007]
3,< 100 nM,N#Cc1cncc(COc2cc(O[C@H]3CCc4c(-c5ccccc5)cccc43)c(Cl)cc2CNC[C@@H](O)CC(=O)O)c1 [Example 1.009]
4,500 to 20000 nM,N#Cc1cncc(COc2cc(O[C@@H]3c4cccc(-c5ccccc5F)c4C[C@H]3F)c(Cl)cc2CN2CCC(O)CC2)c1 [Example 2.148]
5,100 to 500 nM,N#Cc1cncc(COc2cc(OC3CCc4c(-c5ccccc5)cccc43)c(Cl)cc2CN2CCC2)c1 (stereo not drawn) [Example 1.006]
6,< 100 nM,C[C@@H](O)[C@H](NCc1cc(Cl)c(O[C@@H]2CCc3c(-c4ccccc4F)cccc32)cc1OCc1cncc(C#N)c1)C(=O)O [Example 2.138]
7,100 to 500 nM,COc1cccc(-c2cccc3c2CC[C@@H]3Oc2cc(OCc3cncc(C#N)c3)c(CN3CCC(CO)CC3)cc2Cl)c1Cl [Example 2.081]
8,< 100 nM,N#Cc1cncc(COc2cc(OC3CCc4c(-c5ccccc5)cccc43)c(Cl)cc2CN2CCCC[C@H]2C(=O)O)c1 (stereo partly drawn) [Example 1.005]
9,< 100 nM,N#Cc1cncc(COc2cc(O[C@@H]3CCc4c(-c5ccccc5)cccc43)c(Cl)cc2CNC[C@@H](O)CC(=O)O)c1 [Example 1.008]
10,500 to 20000 nM,N#Cc1cncc(COc2cc(O[C@H]3CCc4c(-c5ccccc5F)cccc43)c(Cl)cc2CNC23CC(C2)C3)c1 [Example 2.017]
11,500 to 20000 nM,NC(=O)COc1cc(O[C@H]2CCc3c(-c4ccccc4F)cccc32)c(Cl)cc1CN[C@@H](CO)C(=O)O [Example 2.124]
12,100 to 500 nM,CCOc1cc(O[C@H]2CCc3c(-c4ccccc4F)cccc32)c(Cl)cc1CN[C@H](C(=O)O)[C@@H](C)O [Example 2.157]
13,100 to 500 nM,N#Cc1cncc(COc2cc(O[C@H]3CCc4c(-c5ccccc5F)cccc43)c(Cl)cc2CNCc2cnn[nH]2)c1 [Example 2.025]
14,< 100 nM,C[C@H](NCc1cc(Cl)c(O[C@H]2CCc3c(-c4ccccc4F)cccc32)cc1OCc1cncc(C#N)c1)C(=O)O [Example 2.098]
15,< 100 nM,N#Cc1cncc(COc2cc(O[C@@H]3CCc4c(-c5ccccc5F)cccc43)c(Cl)cc2CN[C@@H](CO)C(=O)O)c1 [Example 2.139]
16,100 to 500 nM,N#Cc1cccc(-c2cc(O[C@H]3CCc4c(-c5ccccc5F)cccc43)c(Cl)cc2CN[C@@H](CO)C(=O)O)c1 [Example 2.121]

# Same assay, conditions: Table 3; plate-coated human PD-L1, biotinylated human PD-1; read-out: ELISA IC50
row,Structure (SMILES),IC50
1,N#Cc1cc(COc2cc(O[C@H]3CCc4c(-c5cccc(O)c5F)cccc43)c(Cl)cc2CN[C@@H](CO)C(=O)O)cc(NC=O)c1 [Example 3.020],< 100 nM
2,N#Cc1cncc(COc2cc(O[C@H]3CCc4c(-c5ccccc5F)cccc43)c(Cl)cc2CN[C@@H](CO)C(=O)O)c1 [Example 3.024],< 100 nM
3,N#Cc1cncc(COc2cc(O[C@H]3CCc4c(-c5ccccc5F)cccc43)c(Cl)cc2CN[C@H]2CCC[C@@H]2O)c1 [Example 3.019],< 100 nM
4,O=C(O)[C@H](CO)NCc1cc(Cl)c(O[C@H]2CCc3c(-c4ccc5c(c4F)OCCO5)cccc32)cc1OCc1cc(F)cc(F)c1 [Example 3.012],500 to 20000 nM
5,N#Cc1cncc(COc2cc(O[C@H]3CCc4c(-c5ccccc5F)cccc43)c(Cl)cc2CN[C@H]2CCCC[C@@H]2O)c1 [Example 3.021],< 100 nM

# More lines, now with the values ahead:
row,IC50,Structure (SMILES)
1,100 to 500 nM,COC(=O)[C@](C)(CO)NCc1cc(Cl)c(O[C@H]2CCc3c(-c4ccc5c(c4F)OCCO5)cccc32)cc1OCc1cncc(C#N)c1 [Example 3.035]
2,< 100 nM,N#Cc1cncc(COc2cc(O[C@H]3CCc4c(-c5ccc6c(c5)OCO6)cccc43)c(Cl)cc2CN[C@@H](CO)C(=O)O)c1 [Example 3.122]
3,500 to 20000 nM,N#Cc1cncc(COc2cc(O[C@H]3CCc4c(-c5ccccc5F)cccc43)c(Cl)cc2CN[C@H](Cc2ccc(O)cc2)C(=O)O)c1 [Example 3.102]
4,< 100 nM,N#Cc1cc(Br)cc(COc2cc(O[C@H]3CCc4c(-c5ccccc5F)cccc43)c(Cl)cc2CN[C@@H](CO)C(=O)O)c1 [Example 3.063]
5,500 to 20000 nM,N#Cc1cncc(COc2cc(O[C@H]3CCc4c(-c5ccccc5F)cccc43)c(Cl)cc2CNc2cncc(CO)c2)c1 [Example 3.097]
6,< 100 nM,CN(C)CCCCCNCc1cc(Cl)c(O[C@H]2CCc3c(-c4ccccc4F)cccc32)cc1OCc1cncc(C#N)c1 [Example 3.080]
7,100 to 500 nM,N#Cc1cncc(COc2cc(O[C@H]3CCc4c(-c5ccccc5F)cccc43)c(Cl)cc2CN[C@@H](CNC(=N)N)C(=O)O)c1 [Example 3.096]
8,500 to 20000 nM,N#Cc1cncc(COc2cc(O[C@H]3CCc4c(-c5ccc6ccccc6c5)cccc43)c(Cl)cc2CN[C@@H](CO)C(=O)O)c1 [Example 3.125]
9,100 to 500 nM,N#Cc1cncc(COc2cc(O[C@H]3CCc4c(-c5ccccc5F)cccc43)c(Cl)cc2CNCCN2CCCCC2CO)c1 (stereo partly drawn) [Example 3.077]
10,< 100 nM,N#Cc1cncc(COc2cc(O[C@H]3CCc4c(-c5ccccc5F)cccc43)c(Cl)cc2CNC2CCOCC2)c1 [Example 3.072]
11,100 to 500 nM,Cc1cc(C#N)cc(COc2cc(O[C@H]3CCc4c(-c5ccccc5F)cccc43)c(Cl)cc2CN[C@@H](CO)C(=O)O)c1 [Example 3.055]
12,< 100 nM,C[C@H](NC(=O)[C@H](CO)NCc1cc(Cl)c(O[C@H]2CCc3c(-c4ccccc4F)cccc32)cc1OCc1cncc(C#N)c1)C(=O)O [Example 3.049]
13,100 to 500 nM,N#Cc1cncc(COc2cc(O[C@H]3CCc4c(-c5ccccc5F)cccc43)c(Cl)cc2CNCC(=O)N[C@@H](CO)C(=O)O)c1 [Example 3.050]
14,500 to 20000 nM,CC(C)OC(=O)[C@H](CO)NCc1cc(Cl)c(O[C@H]2CCc3c(-c4ccc5c(c4F)OCCO5)cccc32)cc1OCc1cncc(C#N)c1 [Example 3.046]
15,500 to 20000 nM,N#Cc1cncc(COc2cc(O[C@H]3CCc4c(-c5cccc(CO)c5)cccc43)c(Cl)cc2CN[C@@H](CO)C(=O)O)c1 [Example 3.121]
16,100 to 500 nM,Cc1n[nH]c(C)c1CNCc1cc(Cl)c(O[C@H]2CCc3c(-c4ccccc4F)cccc32)cc1OCc1cncc(C#N)c1 [Example 3.082]
17,100 to 500 nM,CC(C)[C@@H](NCc1cc(Cl)c(O[C@H]2CCc3c(-c4ccccc4F)cccc32)cc1OCc1cncc(C#N)c1)C(=O)O [Example 3.099]
18,500 to 20000 nM,CC(N[C@@H](CO)C(=O)O)c1cc(Cl)c(O[C@H]2CCc3c(-c4ccc(O)cc4)cccc32)cc1OCc1cncc(C#N)c1 (stereo partly drawn) [Example 3.111]
19,< 100 nM,C[C@H](NCc1cc(Cl)c(O[C@H]2CCc3c(-c4ccccc4F)cccc32)cc1OCc1cncc(C#N)c1)C(=O)N[C@@H](CO)C(=O)O [Example 3.047]
20,100 to 500 nM,Cn1ccnc1CNCc1cc(Cl)c(O[C@H]2CCc3c(-c4ccccc4F)cccc32)cc1OCc1cncc(C#N)c1 [Example 3.075]
21,100 to 500 nM,C[C@H](NCc1cc(Cl)c(O[C@H]2CCc3c(-c4ccccc4F)cccc32)cc1OCc1cncc(C#N)c1)C(=O)NCC(=O)O [Example 3.058]
22,< 100 nM,N#Cc1cncc(COc2cc(O[C@H]3CCc4c(-c5ccccc5F)cccc43)c(Cl)cc2CN[C@H]2CCC[C@H](O)C2)c1 [Example 3.040]
